Assays:
[1] = system: histone H2A.Z Lysine 7 acetylation (TIP60 mediated) in U2OS cells; assay: H2A.Z Lysine 7 Acetylation Biomarker Assay (96 well, U2OS); assay type: cell-based; conditions: Homo sapiens, Table 7, H2A.Z K7ac, 24 hours incubation, serum free medium
Method: To discover a global TIP60/KAT5 cellular biomarker useful for monitoring PD responses of TIP60 inhibition in vitro and in vivo, various histone modifications were assessed for TIP60 dependence through genetic (TIP60 siRNA and CRISPR/Cas9) or TIP60 pharmacological inhibition. This analysis clearly identified acetylation of the histone variant H2A.Z at Lysine 7 (H2A.ZK7ac) as a global histone mark which is TIP60-dependent in both human and mouse cells. To a lesser extent, TIP60 also acetylated lysine 4 and 11 of H2A.Z.
Compounds may be tested for their ability to inhibit the histone H2A.Z Lysine 7 acetylation biomarker (which is TIP60 mediated) in the following assay:
The cell line U2OS was seeded at a density of 9,000 cells per well in 96 well optical quality tissue culture plates in RPMI medium and 10% foetal bovine serum, and allowed to adhere for 24 hours under standard culture conditions (37 degree Celsius, 5% CO2). At the end of this period the cells were washed with serum free medium. Compound dilutions prepared in DMSO were added to the serum free medium, with negative control wells reserved for treatment with DMSO only and positive controls receiving a potent inhibitor compound (e.g. Example 146) at 20 μM concentration. After incubation for 24 hours, the cells were fixed with 3.7% formaldehyde in PBS for 20 minutes at room temperature, washed with phosphate buffer saline containing 0.1% Tween 20 and blocked with Odyssey blocking buffer (LI-COR, Lincoln, Nebr.) containing 0.1% TritonX100. Anti-H2A.Z K7ac specific antibody (Abcam) in Odyssey blocking buffer containing 0.1% Tween 20 was added and incubated for 14 hours at 4 degree Celsius. After washing, a secondary antibody labelled with Alexa647 dye (LifeTechnologies) and Hoechst 33342 (10 μM, SigmaAldrich) were added for 1 hour incubation. Plates were washed and read on a PerkinElmer Phenix high content imaging platform. Using a Columbus image analysis pipeline, individual nuclei were located by Hoechst 33342 stain and the acetylation level was calculated from the Alexa647-related intensity in the same area. The resulting mean intensity per cell was directly converted to percent inhibition relative to controls on the same plate and the data fitted against a four-parameter logistic model to determine the 50% inhibitory concentration (IC50).

[2] = system: histone H3K23 acetylation (KATE mediated) in U2OS cells; assay: Histone H3 Lysine 23 Acetylation Biomarker Assay (U2OS); assay type: cell-based; conditions: Homo sapiens, 96 well, 24 hours incubation
Outline: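 U2OS cells were treated with compound for 24 h, then fixed and immunostained for H3K23ac with Hoechst nuclear counterstain. Per-nucleus Alexa647 intensity was quantified by high-content imaging and converted to % inhibition against DMSO and 10 μM reference-inhibitor controls. IC50 was derived from a four-parameter logistic fit.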

QKF-KAT6B = biological target: T1, QKF-KAT6B (Homo sapiens, UniProt Q8WYB5); assay: Acetyltransferase biochemical assay (AlphaScreen), KAT6B; conditions: Table 5 (QKF-KAT6B); 0.4 μM Acetyl coenzyme A, histone H3.1, 8 nM enzyme
T1 construct: purchased SignalChem K315-381BG
T1 sequence (Q8WYB5 whole entry): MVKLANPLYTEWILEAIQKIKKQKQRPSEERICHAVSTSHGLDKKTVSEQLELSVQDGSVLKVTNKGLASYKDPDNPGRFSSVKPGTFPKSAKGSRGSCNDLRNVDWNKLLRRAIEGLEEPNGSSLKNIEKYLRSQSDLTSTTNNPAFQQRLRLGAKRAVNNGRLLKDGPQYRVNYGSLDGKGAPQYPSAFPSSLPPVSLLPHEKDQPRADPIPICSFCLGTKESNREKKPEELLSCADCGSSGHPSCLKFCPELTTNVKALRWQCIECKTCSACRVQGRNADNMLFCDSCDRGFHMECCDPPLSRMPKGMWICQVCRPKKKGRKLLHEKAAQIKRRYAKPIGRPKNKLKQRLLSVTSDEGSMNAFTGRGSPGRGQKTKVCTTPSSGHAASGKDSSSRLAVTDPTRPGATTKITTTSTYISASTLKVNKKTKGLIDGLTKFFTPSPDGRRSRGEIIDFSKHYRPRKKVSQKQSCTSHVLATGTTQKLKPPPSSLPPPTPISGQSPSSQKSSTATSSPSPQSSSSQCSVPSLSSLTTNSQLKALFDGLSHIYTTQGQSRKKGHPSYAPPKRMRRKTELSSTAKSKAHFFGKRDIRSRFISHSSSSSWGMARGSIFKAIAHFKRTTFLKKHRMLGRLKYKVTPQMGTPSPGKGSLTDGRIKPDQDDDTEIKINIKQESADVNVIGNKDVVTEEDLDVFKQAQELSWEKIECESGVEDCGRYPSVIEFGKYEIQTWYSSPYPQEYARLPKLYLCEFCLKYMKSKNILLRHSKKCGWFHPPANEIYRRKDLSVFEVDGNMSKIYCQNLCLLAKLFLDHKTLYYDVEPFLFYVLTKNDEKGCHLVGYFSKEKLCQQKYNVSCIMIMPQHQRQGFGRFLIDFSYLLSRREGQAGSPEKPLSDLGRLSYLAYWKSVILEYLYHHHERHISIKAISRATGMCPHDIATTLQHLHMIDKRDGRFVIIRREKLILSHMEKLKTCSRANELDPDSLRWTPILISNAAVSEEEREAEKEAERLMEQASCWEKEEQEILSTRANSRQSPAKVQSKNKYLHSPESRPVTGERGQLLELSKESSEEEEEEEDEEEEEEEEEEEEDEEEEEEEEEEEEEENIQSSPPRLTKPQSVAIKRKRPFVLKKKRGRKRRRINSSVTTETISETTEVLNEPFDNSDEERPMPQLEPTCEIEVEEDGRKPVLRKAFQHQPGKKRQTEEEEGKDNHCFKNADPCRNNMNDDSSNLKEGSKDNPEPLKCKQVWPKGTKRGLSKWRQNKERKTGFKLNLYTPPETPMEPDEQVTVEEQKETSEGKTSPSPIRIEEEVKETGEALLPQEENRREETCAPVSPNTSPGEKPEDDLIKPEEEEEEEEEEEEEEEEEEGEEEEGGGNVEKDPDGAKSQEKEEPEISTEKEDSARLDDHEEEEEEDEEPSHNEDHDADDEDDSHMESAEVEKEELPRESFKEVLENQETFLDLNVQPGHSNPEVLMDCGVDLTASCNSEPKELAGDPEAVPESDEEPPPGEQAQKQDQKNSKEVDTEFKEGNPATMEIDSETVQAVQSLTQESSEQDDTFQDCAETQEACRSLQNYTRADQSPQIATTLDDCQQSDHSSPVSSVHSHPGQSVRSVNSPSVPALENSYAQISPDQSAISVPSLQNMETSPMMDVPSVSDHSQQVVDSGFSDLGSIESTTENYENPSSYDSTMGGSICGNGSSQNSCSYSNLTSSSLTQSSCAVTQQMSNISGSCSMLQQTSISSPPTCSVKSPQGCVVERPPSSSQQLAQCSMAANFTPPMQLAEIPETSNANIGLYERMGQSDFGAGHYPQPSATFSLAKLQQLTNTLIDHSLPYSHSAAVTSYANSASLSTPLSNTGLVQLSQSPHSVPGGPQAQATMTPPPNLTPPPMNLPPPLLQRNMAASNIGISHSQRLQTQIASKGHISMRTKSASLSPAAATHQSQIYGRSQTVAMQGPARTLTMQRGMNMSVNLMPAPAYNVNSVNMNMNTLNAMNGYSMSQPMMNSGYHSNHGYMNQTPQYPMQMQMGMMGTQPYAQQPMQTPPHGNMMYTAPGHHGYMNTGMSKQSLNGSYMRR

| Compound | IC50 [1] | IC50 [2] | IC50 (QKF-KAT6B) |
| --- | --- | --- | --- |
| O=C(NCC(c1ccccc1)c1ncco1)C1=Nc2ccc(Br)cc2S(=O)(=O)N1 (stereo not drawn) [Example 1, 7-Bromo-N-(2-(oxazol-2-yl)-2-phenylethyl)-2H-benzo[e][1,2,4]thiadiazine-3-carboxamide 1,1-dioxide] | 2.18 µM | 64 nM |  |
| O=C(NCC(c1ccccc1)c1ncco1)C1=Nc2ccccc2S(=O)(=O)N1 (stereo not drawn) [Example 46, N-(2-(oxazol-2-yl)-2-phenylethyl)-2H-benzo[e][1,2,4]thiadiazine-3-carboxamide 1,1-dioxide] | 30 µM | 178 nM | 122 nM |
| O=C(NCCc1ccccc1-n1nccn1)C1=Nc2ccc(I)cc2S(=O)(=O)N1 [Example 60, N-(2-(2H-1,2,3-triazol-2-yl)phenethyl)-7-iodo-2H-benzo[e][1,2,4]thiadiazine-3-carboxamide 1,1-dioxide] | 2.06 µM | 1420 nM |  |
| O=C(NCCc1ccccc1OC(F)F)C1=Nc2ccc(I)cc2S(=O)(=O)N1 [Example 91] | 10 µM | 7690 nM |  |
